Test results from the supplement of paper PMC10331698.
± gives the standard deviation of the averaged measurements.

Experiments:
Experiment in all cases: level (log10 ratio to DMSO vehicle control); higher = higher biomarker level / cell amount than vehicle control
Details in all cases: in DMSO
Heptafluorobutyl iodide = compound: FC(F)(F)C(F)(F)C(F)(F)CI [Heptafluorobutyl iodide]
Description: (§1)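 BioMAP Diversity Plus panel of 12 human primary cell co-culture systems (3C, 4H, LPS, SAg, BT, BF4T, BE3C, CASM3C, HDF3CGF, KF3CT, MyoF, Mphg). Compounds were added 1 h before stimulation and left for 24 h (MyoF 48 h; BT 72 h for soluble read-outs or 6 d for IgG). Biomarkers were read by ELISA, cytotoxicity by SRB, PBMC viability and proliferation by Alamar Blue. Each well value was divided by the mean of 8 DMSO control wells on the same plate and log10 transformed; duplicate blinded samples were tested at 4 concentrations.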

[1] = compound: NC(=O)C(F)(F)C(F)(F)C(F)(F)C(F)F
Description: as §1

Nonafluoropentanamide = compound: NC(=O)C(F)(F)C(F)(F)C(F)(F)C(F)(F)F [Nonafluoropentanamide]
Description: as §1

[2] = compound: FC(F)(F)C(F)(F)CNCC(F)(F)C(F)(F)F [Bis(1H,1H-perfluoropropyl)amine]
Description: as §1

[3] = compound: O=C(O)C=CC(F)(C(F)(F)F)C(F)(F)F [3-(Perfluoroisopropyl)-2-propenoic acid]
Description: as §1

[4] = compound: O=S(=O)(O)C(F)(F)C(F)(F)C(F)(F)C(F)(F)C(F)(F)C(F)(F)C(F)(F)C(F)(F)C(F)(F)C(F)(F)F [Sodium perfluorodecanesulfonate]
Description: as §1

| Test System | level (log10) (Heptafluorobutyl iodide; 6700 nM) | level (log10) (Heptafluorobutyl iodide; 20000 nM) | level (log10) (Heptafluorobutyl iodide; 60000 nM) | level (log10) ([1]; 6700 nM) | level (log10) ([1]; 20000 nM) | level (log10) ([1]; 60000 nM) | level (log10) (Nonafluoropentanamide; 6700 nM) | level (log10) (Nonafluoropentanamide; 20000 nM) | level (log10) (Nonafluoropentanamide; 60000 nM) | level (log10) ([2]; 6700 nM) | level (log10) ([2]; 20000 nM) | level (log10) ([2]; 60000 nM) | level (log10) ([3]; 6700 nM) | level (log10) ([3]; 20000 nM) | level (log10) ([3]; 60000 nM) | level (log10) ([4]; 1500 nM) | level (log10) ([4]; 4400 nM) | level (log10) ([4]; 13000 nM) | level (log10) ([4]; 40000 nM) |
| --- | --- | --- | --- | --- | --- | --- | --- | --- | --- | --- | --- | --- | --- | --- | --- | --- | --- | --- | --- |
| LPS:CD106/VCAM-1 | -0.0355 ± 0.0092 | -0.001 ± 0.018 | -0.0485 ± 0.054 | -0.0055 ± 0.025 | -0.023 ± 0.041 | -0.015 ± 0.025 | -0.0075 ± 0.028 | -0.0135 ± 0.005 | 0.0035 ± 0.011 | -0.005 ± 0.0057 | 0.001 ± 0.021 | 0.0065 ± 0.0064 | 0.003 ± 0.018 | -0.023 ± 0.013 | -0.018 ± 0.021 | -0.0045 ± 0.029 | 0.0035 ± 0.0078 | -0.0265 ± 0.035 | -0.076 ± 0.0028 |
| BE3C:CD54/ICAM-1 | 0.013 ± 0.021 | 0.005 ± 0.0071 | 0.0085 ± 0.0078 | -0.006 ± 0.0042 | -0.002 ± 0.0042 | 0.0155 ± 0.016 | 0.0025 ± 0.012 | -0.009 ± 0.028 | 0.0025 ± 0.03 | -0.012 ± 0.0085 | -0.008 ± 0.0099 | 0.0085 ± 0.044 | 0.002 ± 0.0057 | -0.005 | 0.004 ± 0.0071 | 0.0015 ± 0.029 | -0.0075 ± 0.00071 | 0.034 | 0.0425 ± 0.011 |
| BF4T:uPA | -0.008 ± 0.014 | -0.0095 ± 0.022 | -0.0045 ± 0.016 | -0.001 ± 0.023 | -0.0145 ± 0.015 | -0.004 ± 0.021 | -0.03 ± 0.023 | 0.009 ± 0.013 | 0.025 ± 0.0014 | -0.025 ± 0.011 | -0.0205 ± 0.013 | -0.0165 ± 0.0092 | -0.007 ± 0.016 | -0.016 ± 0.0057 | 0.0065 ± 0.018 | 0.0165 ± 0.0035 | 0.013 ± 0.017 | 0.0415 ± 0.005 | 0.06 ± 0.027 |
| BE3C:CXCL8/IL-8 | 0.029 ± 0.04 | 0.008 ± 0.037 | 0.021 ± 0.021 | 0.025 ± 0.035 | 0.0405 ± 0.0078 | 0.0565 ± 0.04 | 0.0235 ± 0.019 | 0.004 ± 0.05 | 0.0245 ± 0.066 | -0.041 ± 0.073 | -0.0325 ± 0.036 | -0.008 ± 0.03 | -0.0015 ± 0.035 | 0.003 ± 0.0057 | 0.0545 ± 0.059 | 0.0135 ± 0.0035 | 0.0345 ± 0.0021 | 0.083 ± 0.021 | 0.0225 ± 0.037 |
| LPS:sTNF-alpha | -0.009 ± 0.017 | -0.0095 ± 0.016 | -0.009 ± 0.023 | -0.0095 ± 0.0035 | -0.0095 ± 0.022 | -0.003 ± 0.031 | 0.018 ± 0.037 | 0.0125 ± 0.0092 | -0.043 ± 0.013 | 0.007 ± 0.028 | 0.005 ± 0.013 | -0.0005 ± 0.0078 | 0.003 ± 0.1 | 0.0345 ± 0.057 | 0.0395 ± 0.03 | -0.0135 ± 0.0078 | -0.0375 ± 0.059 | -0.162 ± 0.0085 | -0.42 ± 0.052 |
| BF4T:CCL2/MCP-1 | 0.0025 ± 0.028 | 0.068 ± 0.11 | 0.046 ± 0.023 | 0.008 ± 0.0042 | -0.0135 ± 0.0092 | 0.0165 ± 0.047 | 0.001 ± 0.013 | -0.0615 ± 0.023 | -0.105 ± 0.03 | -0.004 ± 0.014 | -0.009 ± 0.027 | -0.0295 ± 0.015 | 0.0045 ± 0.023 | 0.003 ± 0.013 | 0.0505 ± 0.076 | 0.0015 ± 0.011 | 0.008 ± 0.018 | 0.0125 ± 0.043 | 0.051 ± 0.0042 |
| BF4T:IL-1alpha | -0.017 ± 0.016 | -0.0125 ± 0.0035 | -0.015 ± 0.05 | -0.0175 ± 0.021 | -0.004 ± 0.0028 | -0.002 ± 0.0057 | -0.017 ± 0.0042 | -0.0035 ± 0.028 | -0.003 ± 0.0014 | -0.007 ± 0.014 | -0.0135 ± 0.015 | 0.0105 ± 0.049 | -0.002 ± 0.021 | 0.0065 ± 0.011 | 0.012 ± 0.0057 | 0.037 ± 0.034 | -0.0165 ± 0.033 | 0.0095 ± 0.011 | -0.0155 ± 0.0064 |
| BF4T:MMP-9 | -0.008 ± 0.0085 | -0.018 ± 0.013 | 0.0025 ± 0.03 | 0.013 ± 0.051 | -0.006 ± 0.055 | -0.001 ± 0.047 | -0.026 ± 0.068 | -0.051 ± 0.016 | 0.004 ± 0.017 | -0.013 ± 0.0057 | -0.013 ± 0.0042 | 0.0085 ± 0.036 | 0.0015 ± 0.029 | 0.004 ± 0.0099 | 0.025 ± 0.04 | 0.0255 ± 0.0078 | -0.007 ± 0.045 | -0.0285 ± 0.015 | -0.058 ± 0.021 |
| SAg:CCL2/MCP-1 | -0.0095 ± 0.0078 | -0.0025 ± 0.00071 | 0.01 ± 0.011 | -0.0145 ± 0.026 | -0.024 ± 0.013 | 0.0115 ± 0.03 | -0.0125 ± 0.0035 | -0.0175 ± 0.012 | 0.0195 ± 0.053 | -0.013 ± 0.016 | -0.006 ± 0.0099 | 0.017 ± 0.028 | -0.003 ± 0.0042 | -0.0005 ± 0.016 | -0.0055 ± 0.0064 | 0.0175 ± 0.022 | -0.014 ± 0.016 | 0.043 ± 0.0085 | 0.0825 ± 0.021 |
| LPS:CD62E/E-Selectin | 0.005 ± 0.1 | -0.013 ± 0.0028 | 0.026 ± 0.068 | -0.0115 ± 0.022 | -0.023 ± 0.0014 | -0.016 ± 0.016 | 0.003 ± 0.0042 | 0.0175 ± 0.005 | 0.0215 ± 0.029 | 0.0005 ± 0.032 | -0.012 ± 0.0057 | 0.0125 ± 0.00071 | 0.0055 ± 0.015 | -0.013 ± 0.0042 | 0.0165 ± 0.0035 | -0.019 ± 0.02 | -0.045 ± 0.059 | -0.0425 ± 0.069 | -0.084 ± 0.076 |
| BE3C:CXCL10/IP-10 | -0.0015 ± 0.0064 | -0.005 ± 0.0057 | 0.005 ± 0.013 | 0.0025 ± 0.0064 | -0.0015 ± 0.016 | 0.007 ± 0.013 | 0.0145 ± 0.021 | -0.005 ± 0.038 | -0.0095 ± 0.015 | -0.017 ± 0.035 | -0.0075 ± 0.028 | -0.001 ± 0.0028 | 0.0055 ± 0.0035 | 0.004 ± 0.0099 | 0.009 ± 0.0014 | -0.0045 ± 0.029 | -0.0165 ± 0.0021 | -0.076 ± 0.0042 | -0.201 ± 0.013 |
| BF4T:CCL26/Eotaxin-3 | -0.0245 ± 0.005 | 0.002 ± 0.023 | 0.048 ± 0.023 | -0.001 ± 0.0085 | -0.012 ± 0.033 | 0.0005 ± 0.018 | -0.006 ± 0.0071 | -0.055 ± 0.0042 | -0.0525 ± 0.0092 | -0.0275 ± 0.026 | -0.0245 ± 0.0021 | -0.0055 ± 0.053 | -0.0085 ± 0.057 | -0.005 ± 0.013 | 0.0165 ± 0.029 | -0.0815 ± 0.026 | -0.131 ± 0.0078 | -0.23 ± 0.066 | -0.298 ± 0.013 |
| BF4T:CD106/VCAM-1 | -0.016 ± 0.0057 | -0.021 ± 0.0042 | 0.017 ± 0.045 | -0.015 ± 0.0028 | -0.014 ± 0.0042 | -0.003 ± 0.023 | -0.015 ± 0.059 | -0.0485 ± 0.03 | -0.014 ± 0.017 | -0.034 ± 0.0057 | -0.034 ± 0.017 | 0.008 ± 0.069 | -0.0095 ± 0.04 | -0.0275 ± 0.025 | 0.0225 ± 0.019 | -0.0095 ± 0.021 | -0.0125 ± 0.069 | -0.096 ± 0.035 | -0.106 ± 0.028 |
| SAg:CXCL9/MIG | -0.007 ± 0.0028 | -0.0025 ± 0.0021 | -0.0085 ± 0.0092 | -0.0015 ± 0.0021 | -0.0055 ± 0.005 | 0.0105 ± 0.0021 | 0.003 ± 0.014 | -0.0035 ± 0.013 | 0.0185 ± 0.015 | -0.0045 ± 0.0021 | -0.0045 ± 0.0035 | 0.0075 ± 0.012 | -0.0105 ± 0.025 | 0.013 | -0.006 ± 0.0085 | 0.0075 ± 0.013 | -0.0085 ± 0.011 | 0.015 ± 0.013 | -0.0255 ± 0.013 |
| SAg:CXCL8/IL-8 | -0.053 ± 0.04 | -0.0345 ± 0.019 | -0.02 ± 0.072 | -0.0055 ± 0.037 | 0.0075 ± 0.015 | 0.0055 ± 0.018 | -0.0285 ± 0.039 | -0.027 ± 0.02 | -0.0305 ± 0.076 | 0.0265 ± 0.059 | -0.0085 ± 0.023 | 0.0095 ± 0.053 | -0.0185 ± 0.005 | -0.0015 ± 0.033 | 0.009 ± 0.028 | 0.0165 ± 0.025 | -0.0175 ± 0.016 | 0.06 ± 0.0042 | 0.126 ± 0.019 |
